Source: patent US11958844B2, “1,3,4-oxadiazole derivative compounds as histone deacetylase 6 inhibitor, and pharmaceutical composition comprising the same” (Chong Kun Dang Pharmaceutical Corp., priority 2018, dated 2024)

Molecular target: T1, HDAC6 human recombinant (Homo sapiens, UniProt Q9UBN7)
T1 sequence (Q9UBN7 1-1215): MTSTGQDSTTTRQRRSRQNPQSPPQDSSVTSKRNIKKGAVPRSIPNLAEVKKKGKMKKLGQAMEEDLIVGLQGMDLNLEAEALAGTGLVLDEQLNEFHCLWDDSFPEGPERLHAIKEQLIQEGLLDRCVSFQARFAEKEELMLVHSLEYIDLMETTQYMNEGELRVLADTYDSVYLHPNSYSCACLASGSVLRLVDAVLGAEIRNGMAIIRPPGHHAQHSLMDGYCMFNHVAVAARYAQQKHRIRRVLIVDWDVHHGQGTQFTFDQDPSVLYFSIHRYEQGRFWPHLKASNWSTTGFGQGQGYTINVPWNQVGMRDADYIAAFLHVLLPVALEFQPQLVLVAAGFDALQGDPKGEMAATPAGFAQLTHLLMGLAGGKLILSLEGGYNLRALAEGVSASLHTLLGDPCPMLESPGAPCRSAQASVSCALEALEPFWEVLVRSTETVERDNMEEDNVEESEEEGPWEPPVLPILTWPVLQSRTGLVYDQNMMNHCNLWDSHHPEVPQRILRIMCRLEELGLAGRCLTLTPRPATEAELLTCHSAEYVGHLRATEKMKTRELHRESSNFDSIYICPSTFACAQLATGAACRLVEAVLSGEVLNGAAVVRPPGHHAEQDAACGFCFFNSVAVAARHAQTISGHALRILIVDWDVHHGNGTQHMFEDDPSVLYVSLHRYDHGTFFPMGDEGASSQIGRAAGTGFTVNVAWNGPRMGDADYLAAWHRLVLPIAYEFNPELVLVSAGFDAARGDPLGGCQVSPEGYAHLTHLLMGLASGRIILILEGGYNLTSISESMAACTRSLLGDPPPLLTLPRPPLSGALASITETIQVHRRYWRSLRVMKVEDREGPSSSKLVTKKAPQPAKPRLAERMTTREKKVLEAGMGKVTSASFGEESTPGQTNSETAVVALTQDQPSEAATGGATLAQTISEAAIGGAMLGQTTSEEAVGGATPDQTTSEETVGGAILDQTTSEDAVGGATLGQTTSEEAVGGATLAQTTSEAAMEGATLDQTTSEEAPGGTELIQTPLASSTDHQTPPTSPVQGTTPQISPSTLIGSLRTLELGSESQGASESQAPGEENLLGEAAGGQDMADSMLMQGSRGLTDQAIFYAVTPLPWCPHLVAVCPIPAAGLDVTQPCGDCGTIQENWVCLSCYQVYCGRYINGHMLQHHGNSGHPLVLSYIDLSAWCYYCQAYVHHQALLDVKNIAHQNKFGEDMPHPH
Assay: HDAC enzyme activity inhibition (in vitro), fluorimetric HDAC6 assay
Type: biochemical
Settings: samples at 0.1, 1, 10, 100 and 1000 nM, 37° C. 60 minutes, fluorescence Ex 390, Em 460
Experimental: To identify this, HDAC1/6 enzyme selectivity and cell selectivity (HDAC1: histone acetylation/HDAC6: tubulin acetylation) were investigated accordingly.
An HDAC enzyme inhibitory ability of a test material was measured by means of HDAC1 Fluorimetric Drug Discovery Assay Kit (Enzolifesciences: BML-AK511) and HDAC6 human recombinant (Calbiochem: 382180). For an HDAC1 assay, samples were treated at a concentration of 100, 1000 and 10000 nM. For an HDAC6 assay, samples were treated at a concentration of 0.1, 1, 10, 100 and 1000 nM. After such sample treatment, a reaction was continued at 37° C. for 60 minutes, then treated with a developer, and then subjected to reaction at 37° C. for 30 minutes, after which fluorescence intensity (Ex 390, Em 460) was measured by means of FlexStation3 (Molecular device).

Structure (SMILES) | IC50 [nM]
O=C(Cn1ccc(-c2nnc(C(F)F)o2)cc1=O)c1ccccc1 [Compound 3, 4-(5-(difluoromethyl)-1,3,4-oxadiazole-2-yl)-1-(2-oxo-2-phenylethyl)pyridine-2(1H)-one] | 210
O=c1cc(-c2nnc(C(F)F)o2)ccn1C/C=C/c1ccccc1 [Compound 5, 1-cinnamyl-4-(5-(difluoromethyl)-1,3,4-oxadiazole-2-yl)pyridine-2(1H)-one] | 40
O=c1cc(-c2nnc(C(F)F)o2)ccn1CCn1cccn1 [Compound 6, 1-(2-(1H-pyrazole-1-yl)ethyl)-4-(5-(difluoromethyl)-1,3,4-oxadiazole-2-yl)pyridine-2(1H)-one] | 456
O=C(Cn1ccc(-c2nnc(C(F)F)o2)cc1=O)c1ccc2ccccc2c1 [Compound 7, 4-(5-(difluoromethyl)-1,3,4-oxadiazole-2-yl)-1-(2-(naphthalene-2-yl)-2-oxoethyl)pyridine-2(1H)-one] | 364
O=c1cc(-c2nnc(C(F)F)o2)ccn1CCC1OCCCO1 [Compound 9, 1-(2-(1,3-dioxane-2-yl)ethyl)-4-(5-(difluoromethyl)-1,3,4-oxadiazole-2-yl)pyridine-2(1H)-one] | 247
CCN(CC)CCn1ccc(-c2nnc(C(F)F)o2)cc1=O [Compound 11, 1-(2-(diethylamino)ethyl)-4-(5-(difluoromethyl)-1,3,4-oxadiazole-2-yl)pyridine-2(1H)one] | 2250
O=C(Cn1ccc(-c2nnc(C(F)F)o2)cc1=O)OCc1ccccc1 [Compound 15, benzyl 2-(4-(5-(difluoromethyl)-1,3,4-oxadiazole-2-yl)-2-oxopyridine-1(2H)-yl)acetate] | 74
O=C(OCCn1ccc(-c2nnc(C(F)F)o2)cc1=O)c1ccccc1 [Compound 16, 2-(4-(5-(difluoromethyl)-1,3,4-oxadiazole-2-yl)-2-oxopyridine-1(2H)-yl)ethyl] | 952

The remaining lines, values ahead:

IC50 [nM] | Structure (SMILES)
82 | O=c1cc(-c2nnc(C(F)F)o2)ccn1Cc1ccc2ccccc2c1 [Compound 1, 4-(5-(difluoromethyl)-1,3,4-oxadiazole-2-yl)-1-(naphthalene-2-ylmethyl)pyridine-2(1H)-one]
253 | COc1cc(CCn2ccc(-c3nnc(C(F)F)o3)cc2=O)cc(OC)c1 [Compound 8, 4-(5-(difluoromethyl)-1,3,4-oxadiazole-2-yl)-1-(3,5-dimethoxyphenethyl)pyridine-2(1H)-one]
217 | O=c1cc(-c2nnc(C(F)F)o2)ccn1Cc1cc(F)ccc1F [Compound 10, 1-(2,5-difluorobenzyl)-4-(5-(difluoromethyl)-1,3,4-oxadiazole-2-yl)pyridine-2(1H)-one]
631 | O=c1cc(-c2nnc(C(F)F)o2)ccn1Cc1ccccc1Cl [Compound 12, 1-(2-chlorobenzyl)-4-(5-(difluoromethyl)-1,3,4-oxadiazole-2-yl)pyridine-2(1H)-one]
306 | O=c1cc(-c2nnc(C(F)F)o2)ccn1Cc1cc(F)c(F)cc1F [Compound 13, 4-(5-(difluoromethyl)-1,3,4-oxadiazole-2-yl)-1-(2,4,5-trifluorobenzyl)pyridine-2(1H)-one]
108 | O=c1cc(-c2nnc(C(F)F)o2)ccn1Cc1cccc(F)c1 [Compound 14, 4-(5-(difluoromethyl)-1,3,4-oxadiazole-2-yl)-1-(3-fluorobenzyl)pyridine-2(1H)-one]
507 | O=c1cc(-c2nnc(C(F)F)o2)ccn1Cc1ccccc1F [Compound 17, 4-(5-(difluoromethyl)-1,3,4-oxadiazole-2-yl)-1-(2-fluorobenzyl)pyridine-2(1H)-one]
509 | O=C(Cn1ccc(-c2nnc(C(F)F)o2)cc1=O)c1ccc(Cl)c(Cl)c1 [Compound 18, 1-(2-(3,4-dichlorophenyl)-2-oxoethyl)-4-(5-(difluoromethyl)-1,3,4-oxadiazole-2-yl)pyridine-2(1H)-one]
351 | O=C(Cn1ccc(-c2nnc(C(F)F)o2)cc1=O)c1ccc(Cl)cc1 [Compound 19, 1-(2-(4-chlorophenyl)-2-oxoethyl)-4-(5-(difluoromethyl)-1,3,4-oxadiazole-2-yl)pyridine-2(1H)-one]
